The record followed here is paper PMC13185115, “Photovermellogens: Minimalistic Pyridinium-Based Acylhydrazones with Photoswitchable Basicity for Operation in Aqueous Media” (The Journal of Organic Chemistry, 2026).

Structures are written as SMILES.

Holding throughout (assay type): physicochemical
Data set [1] in a line: Photostationary state distribution by 1H NMR integration. The conditions noted are these: pD 6; for PSD E→Z (photostationary state distribution): irradiation at 254 nm; for PSD Z→E (photostationary state distribution): irradiation at >420 nm. From the text:
(§1) Photoisomerization studies were subsequently carried out in acidic medium (pH = pK a – 2) in order to assess the photoresponse of the protonated species. Under these conditions, the anticipated photoisomerization of the thermally stable E-P a–dH^+ species was investigated by UV–vis absorption spectroscopy under irradiation at 254 nm. […] It is noteworthy that the irradiation wavelength can be extended to 365 nm, yielding virtually the same observations as for 254 nm irradiation (see footnotes of Table ). Irradiation also produced clear NMR spectral changes that support the occurrence of the E→Z isomerization. In essence, the signals Hf–h of the phenyl moiety were only slightly affected, whereas those of the pyridinium and acylhydrazone fragments shifted markedly, consistent with the formation of an intramolecular hydrogen bond in the Z-P a–cH^+ species. The reverse Z→E transformation of the protonated forms P a–cH^+ was also achieved upon irradiation at λ > 420 nm, giving lower quantum yields and less favorable PSDs (Figures S145–S147, S149–154, S1).

Data set [2] in a line: Thermal Z-PH+ to E-PH+ back-isomerization kinetics.
From the text: as §1
5.5. Z-P a-cH+→E-P a-cH+ thermal back-isomerization kinetics.
Figure S155. Absorption spectrum variation during 48h at room temperature from the PSS reached for P aH·Cl (7µM, pH 6, Red) state during 48h. E-isomer absorption spectrum in green.
Even though the kinetics has not been fully completed, it can be observed that it occurs much more slowly than photochemical processes.
To obtain an estimation of P aH·Cl Z→E thermal half-live at room temperature, the Z →E thermal reversion kinetics were monitored starting from the 254nm photostationary state at different temperatures (47, 55 and 64 °C). By tracking the absorbance changes at 420 nm, an Arrhenius analysis was performed, allowing the determination of the activation energy (EA) and the estimation of the thermal half-life at 25 °C.

Data set [3] in a line: pKa determination for the photostationary state (Z-enriched) by UV-Vis spectroscopy. The conditions noted are these: apparent acidity constant of the cationic Z form as present in the photostationary state (88–97% Z) after 254 nm irradiation; water. The source says: (§2) Having confirmed the photochemical behavior of the protonated forms, we next explored their light-responsiveness in the deprotonated state. […] To probe whether Z-P a–c could nonetheless be generated indirectly, we explored a consecutive photoisomerization–deprotonation sequence. Thus, E-P a–cH^+ was first irradiated at 254 nm and pH 6 to enrich the Z population, followed by immediate adjustment of the solution to pH 13. Under these conditions, transient spectroscopic features were observed, consistent with the kinetic trapping of the metastable Z-P a–c species. […] These spectroscopic observations enabled the estimation of virtual pK a values for the Z-enriched solutions (Table and Figures S163–168, SI1), which confirmed the reduced acidity of the NH group in the Z-isomers, presumably arising from intramolecular hydrogen-bond formation.
6. Determination of pK a values for the PSS by UV-Vis spectroscopy.
The concentration of P a-cH·Cl was kept constant at appropriate values in the 10-20 µM range, and that of the phosphate buffer at 20 mM. The absorption measurements of the corresponding air-equilibrated phosphate buffered aqueous solutions were carried out at room temperature (298 K), in quartz cuvettes with 1 cm optical pathlength. For the kinetic trapping of the deprotonated Z-isomers of P a-cH·Cl, a solution of the corresponding salt in phosphate buffered solution at a conveniently acidic pH/pD was irradiated at 254 nm until reaching the PSS. Then, the pH of the solution was in each case adjusted to the required final value, by addition of 40 mM stock solutions of phosphate buffer of the required composition. The reported measurements were done as fast as possible to minimize thermal back-isomerization.

Data set [4] in a line: UV-vis absorption spectra in buffered water (λmax, molar absorption coefficient). The conditions noted are these: for λmax (Z-P) / ε (Z-P): Z conjugate base; for λmax (Z-P) / λmax (E-P) / λmax (E-PH^+) / λmax (Z-PH^+): maximum of the longest-wavelength absorption band; for λmax (Z-P) / ε (Z-P) / λmax (E-P) / ε (E-P) / λmax (E-PH^+) / λmax (Z-PH^+) / ε (E-PH^+) / ε (Z-PH^+): water; for ε (Z-P) / ε (E-P): molar absorption coefficient; for ε (Z-P) / ε (E-P) / ε (E-PH^+) / ε (Z-PH^+): error ± 5%; for λmax (E-P) / ε (E-P): conjugate base; for ε (E-PH^+) / ε (Z-PH^+): molar absorption coefficient at λmax; for ε of the acidic form from absorbance vs concentration: P bH·Cl pH 5, 378 nm, P cH·Cl pH 6, 350 nm, P dH·Cl pH 6, 411 nm; for ε of the basic form from absorbance vs concentration: P bH·Cl pH 12, 456 nm, P cH·Cl pH 12, 433 nm, P dH·Cl pH 13, 500 nm.
From the text: With the photovermellogens synthesized and fully characterized, their acid–base properties were next investigated by UV–vis spectroscopy to determine whether the pH-responsiveness characteristic of parent vermellogens was retained. Indeed, P a–dH·Cl reproduced the archetypical absorption changes of vermellogens (Figures c and S130–S137, SI1). , In essence, the characteristic intense π–π* absorption bands of the cations undergo a considerable bathochromic shift upon deprotonation (Table ), as also confirmed by our quantum chemical calculations (Figure S2, S2), causing a notable color change from yellow to red. This pronounced shift allowed the estimation of pK a values for E-P a–dH^+ via UV–vis absorption titrations, which, as for other vermellogens, fall within the biologically relevant pH range (Figure c, Table and Figures S130–S137, SI1). Changes in the protonation state were also easily monitored by ^1H NMR spectroscopy, with the gain in electronic density translating in a substantial shielding of resonances of the corresponding conjugate bases E/Z-P a–d (Figure a). As already observed for E-P a–dH^+, the deprotonated species were also thermally stable in the absence of light.
as §2
Figure S132. UV-Vis spectra of P bH·Cl at pH 5 (black) and pH 12 (red) at 20 µM. b) Linear relationship at pH 5 between absorbance at 378 nm and concentration of P bH·Cl (ε = 42265 ± 838 L·mol -1·cm-1). c) Linear relationship at pH 12 between absorbance at 456 nm and concentration of P bH·Cl (ε = 42143 ± 1044 L·mol -1·cm-1).
Figure S133. UV-Vis spectra for the titration of P bH·Cl (20 μM in phosphate buffer solutions in the 4.1-10.6 pH range). b) Absorption of P bH+ at λ = 378 nm plotted against pH. c) Linear fitting […]
Figure S134. UV-Vis spectra of P cH·Cl at pH 6 (black) and pH 12 (red) at 14 µM. b) Linear relationship at pH 6 between absorbance at 350 nm and concentration of P cH·Cl (ε = 49266 ± 1780 L·mol-1·cm-1). c) Linear relationship at pH 12 between absorbance at 433 nm and concentration of P cH·Cl (ε = 46382 ± 1667 L·mol -1·cm-1).
Figure S135.UV-Vis spectra for the titration of P cH·Cl, (14 μM in phosphate buffer solutions in the 5.1-11.7 pH range). b) Absorption of P cH+ at λ = 351 nm plotted against pH. c) Linear fitting […]
Figure S136. UV-Vis spectra of P dH·Cl at pH 6 (red) and pH 13 (black) at 11 µM. b) Linear relationship at pH 6 between absorbance at 411 nm and concentration of P dH·Cl (ε = 65691 ± 2966 L·mol-1·cm-1). c) Linear relationship at pH 13 between absorbance at 500 nm and concentration of P dH·Cl (ε = 69154 ± 3100 L·mol -1·cm-1).
Figure S137. UV-Vis spectra for the titration of P dH·Cl (11 μM in phosphate buffer solutions in the 5.1-11.7 pH range). b) Absorption of P dH+ at λ = 410 nm plotted against pH. c) Linear fitting

On to `C[n+]1ccc(NN=CC(=O)c2ccccc2)cc1` [P aH^+], for which, in data set [1], the “PSD E→Z (photostationary state distribution)” value (“PSD E→Z” below) was 93% Z and the “PSD Z→E (photostationary state distribution)” value (“PSD Z→E” for short) is given as 67% E. The “k Z→E unimolecular rate constant, thermal back-isomerization” value (from here on “k Z→E unimolecular rate constant”) in data set [2] (heating to 60 °C, pD 6) was 4.1 10^–4 s^–1. In addition, in data set [3], the “pK a (PSD)” value is 10.4 ± 0.2. In data set [4], the “λmax (Z-P)” value came to 420 nm, the “ε (Z-P)” value is listed as 18,000 M^–1·cm^–1, the “λmax (E-P)” value turned out to be 429 nm and the “ε (E-P)” value was 39,000 M^–1·cm^–1. Further, in data set [4], the “λmax (E-PH^+)” value is 342 nm, the “λmax (Z-PH^+)” value stood at 352 nm, the “ε (E-PH^+)” value was 41,000 M^–1·cm^–1 and the “ε (Z-PH^+)” value is on record as 43,000 M^–1·cm^–1.

As to `C[n+]1ccc(NN=CC(=O)c2ccccc2)c2ccccc21` [P bH^+], in data set [1], the “PSD E→Z” value worked out at 93% Z and the “PSD Z→E” value is given as 57% E. Further, the “k Z→E unimolecular rate constant” value in data set [2] (heating to 70 °C, pD 5) is on record as 9.8 10^–4 s^–1. Also, in data set [3], the “pK a (PSD)” value is given as 8.8 ± 0.2. In data set [4], the “ε of the acidic form from absorbance vs concentration” value is 42265 ± 838 L/mol/cm, the “ε of the basic form from absorbance vs concentration” value was determined as 42143 ± 1044 L/mol/cm, the “λmax (Z-P)” value was 445 nm and the “ε (Z-P)” value is 13,000 M^–1·cm^–1. For the same compound, in data set [4], the “λmax (E-P)” value is 456 nm, the “ε (E-P)” value is recorded as 42,000 M^–1·cm^–1, the “λmax (E-PH^+)” value was 378 nm and the “λmax (Z-PH^+)” value is on record as 384 nm. Also, in data set [4], the “ε (E-PH^+)” value is 42,000 M^–1·cm^–1 and the “ε (Z-PH^+)” value came to 36000 M^–1·cm^–1.

With `O=C(C=NNc1cc[n+](-c2ccccc2)cc1)c1ccccc1` [P cH^+], in data set [1], the “PSD E→Z” value stood at 98% Z and the “PSD Z→E” value was found to be 55% E. Further, in data set [2] (heating to 70 °C, pD 6), the “k Z→E unimolecular rate constant” value is listed as 2.4 10^–4 s^–1. In addition, the “pK a (PSD)” value in data set [3] is reported as 9.9 ± 0.1. Moreover, in data set [4], the “ε of the acidic form from absorbance vs concentration” value was 49266 ± 1780 L/mol/cm, the “ε of the basic form from absorbance vs concentration” value stood at 46382 ± 1667 L/mol/cm, the “λmax (Z-P)” value was 420 nm and the “ε (Z-P)” value is given as 15,000 M^–1·cm^–1. In addition, in data set [4], the “λmax (E-P)” value is given as 432 nm, the “ε (E-P)” value is on record as 46,000 M^–1·cm^–1, the “λmax (E-PH^+)” value worked out at 349 nm and the “λmax (Z-PH^+)” value worked out at 359 nm. Besides, in data set [4], the “ε (E-PH^+)” value is reported as 49,000 M^–1·cm^–1 and the “ε (Z-PH^+)” value is given as 43,000 M^–1·cm^–1.

On to `C[n+]1ccc(-c2ccc(NN=CC(=O)c3ccccc3)cc2)cc1` [P dH^+], for which, in data set [4], the “ε of the acidic form from absorbance vs concentration” value amounted to 65691 ± 2966 L/mol/cm, the “ε of the basic form from absorbance vs concentration” value worked out at 69154 ± 3100 L/mol/cm, the “λmax (E-P)” value is 500 nm and the “ε (E-P)” value is listed as 69,000 M^–1·cm^–1. In data set [4], the “λmax (E-PH^+)” value is given as 411 nm and the “ε (E-PH^+)” value was 66,000 M^–1·cm^–1.
